From patent US20260158009A1 (GENZYME CORPORATION, priority 2023, published 2026)

Columns and labels:
[1] = molecular target: T1, hRIPK1 (aa 1-375) fusion protein (Homo sapiens, UniProt Q13546); experiment: ADP-Glo kinase assay: catalytic activity of RIPK1 (autophosphorylation, conversion of ATP to ADP); type: biochemical
T1 construct: hRIPK1 (aa 1-375) fusion protein
T1 sequence (Q13546 1-375): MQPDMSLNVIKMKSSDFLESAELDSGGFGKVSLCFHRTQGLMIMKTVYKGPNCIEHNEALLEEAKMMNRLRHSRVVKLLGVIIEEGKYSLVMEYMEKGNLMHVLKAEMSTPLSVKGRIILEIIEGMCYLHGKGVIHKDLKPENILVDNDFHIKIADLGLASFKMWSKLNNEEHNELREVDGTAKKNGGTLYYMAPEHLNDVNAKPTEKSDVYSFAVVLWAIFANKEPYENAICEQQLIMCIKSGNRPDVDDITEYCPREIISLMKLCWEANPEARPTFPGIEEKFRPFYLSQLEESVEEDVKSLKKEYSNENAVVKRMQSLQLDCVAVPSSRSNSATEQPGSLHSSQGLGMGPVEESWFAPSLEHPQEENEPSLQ
Procedure, shortened: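 The readout was ADP-Glo luminescence after a 240 min rt autophosphorylation reaction with 50 μM ATP, following 30 min preincubation of 3.6 μg/ml hRIPK1 (aa 1-375) fusion with compound at 33300-1.69 nM final in 1% DMSO. Values came from Levenberg-Marquardt nonlinear fits.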

U937 cells = experiment: Cellular assay in U937 cells: activity of RIPK1 inhibitors on TNFα/zVAD.fmk-induced cell death (necroptosis), CellTiter 96 AQueous (MTS) readout; type: cell-based; details: Homo sapiens, U-937
Procedure, shortened: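 Necroptosis was measured by viable-cell MTS reduction (4 h, absorbance 490 nm) after overnight (18–24 h) 37° C culture. Cell suspensions of U937 cells carried TNFα (100 ng/ml) plus zVAD.fmk (50 μM) before compound was added. A 10-point curve (10 μM–0.26 nM or 1 μM–0.07 nM) was run in duplicate, normalised to the control lacking TNFα/zVAD.fmk.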

IC50 [1] [nM]	SMILES	IC50 (U937 cells) [nM]
21	O=C([C@H]1CC[C@H](Cn2cnc3cc(F)ccc32)CC1)N1OCC[C@H]1c1cc(F)cc(F)c1 [compound 49, trans-((S)-3-(3,5-difluorophenyl)isoxazolidin-2-yl)(4-((5-fluoro-1H-benzo[d]imidazol-1-yl)methyl)cyclohexyl)methanone]	8
34	Cc1nc2cc(F)ccc2n1C[C@H]1CC[C@H](C(=O)N2OCC[C@H]2c2cc(F)cc(F)c2)CC1 [compound 51, trans-((S)-3-(3,5-difluorophenyl)isoxazolidin-2-yl)(4-((5-fluoro-2-methyl-1H-benzo[d]imidazol-1-yl)methyl)cyclohexyl)methanone]	17
15	N#Cc1ccc2c(cnn2C[C@H]2CC[C@H](C(=O)N3OCC[C@H]3c3cc(F)cc(F)c3)CC2)c1 [compound 52, trans-1-((4-((S)-3-(3,5-difluorophenyl)isoxazolidine-2-carbonyl)cyclohexyl)methyl)-1H-indazole-5-carbonitrile]	2
21	O=C([C@H]1CC[C@H](Cn2ncc3cc(F)ccc32)CC1)N1OCC[C@H]1c1cc(F)cc(F)c1 [compound 55, trans-((S)-3-(3,5-difluorophenyl)isoxazolidin-2-yl)(4-((5-fluoro-1H-indazol-1-yl)methyl)cyclohexyl)methanone]	3
27	O=C([C@H]1CC[C@H](Cn2cc3cc(F)ccc3n2)CC1)N1OCC[C@H]1c1cc(F)cc(F)c1 [compound 57, trans-((S)-3-(3,5-difluorophenyl)isoxazolidin-2-yl)(4-((5-fluoro-2H-indazol-2-yl)methyl)cyclohexyl)methanone]	41
26	N#Cc1ccc2nn(C[C@H]3CC[C@H](C(=O)N4OCC[C@H]4c4cc(F)cc(F)c4)CC3)cc2c1 [compound 58, trans-2-((4-((S)-3-(3,5-difluorophenyl)isoxazolidine-2-carbonyl)cyclohexyl)methyl)-2H-indazole-5-carbonitrile]	32
14	Cc1nn(C[C@H]2CC[C@H](C(=O)N3OCC[C@H]3c3cc(F)cc(F)c3)CC2)c2ccccc12 [compound 60, trans-((S)-3-(3,5-difluorophenyl)isoxazolidin-2-yl)(4-((3-methyl-1H-indazol-1-yl)methyl)cyclohexyl)methanone]	5
23	Cc1nn(C[C@H]2CC[C@H](C(=O)N3OCC[C@H]3c3cc(F)cc(C#N)c3)CC2)c2ccccc12 [compound 61, trans-3-fluoro-5-((S)-2-(4-((3-methyl-1H-indazol-1-yl)methyl)cyclohexane-1-carbonyl)isoxazolidin-3-yl)benzonitrile]	11
20	Cc1c2ccccc2nn1C[C@H]1CC[C@H](C(=O)N2OCC[C@H]2c2cc(F)cc(F)c2)CC1 [compound 62, trans-((S)-3-(3,5-difluorophenyl)isoxazolidin-2-yl)(4-((3-methyl-2H-indazol-2-yl)methyl)cyclohexyl)methanone]	22
27	Cc1c2ccccc2nn1C[C@H]1CC[C@H](C(=O)N2OCC[C@H]2c2cc(F)cc(C#N)c2)CC1 [compound 63, trans-3-fluoro-5-((S)-2-(4-((3-methyl-2H-indazol-2-yl)methyl)cyclohexane-1-carbonyl)isoxazolidin-3-yl)benzonitrile]	55

Continued, compound first:

SMILES	IC50 [1] [nM]	IC50 (U937 cells) [nM]
N#Cc1cc(F)cc([C@@H]2CCON2C(=O)[C@H]2CC[C@H](Cn3cnc4cc(F)ccc43)CC2)c1 [compound 48, trans-3-fluoro-5-((S)-2-(4-((5-fluoro-1H-benzo[d]imidazol-1-yl)methyl)cyclohexane-1-carbonyl)isoxazolidin-3-yl)benzonitrile]	25	15
Cc1nc2cc(F)ccc2n1C[C@H]1CC[C@H](C(=O)N2OCC[C@H]2c2cc(F)cc(C#N)c2)CC1 [compound 50, trans-3-fluoro-5-((S)-2-(4-((5-fluoro-2-methyl-1H-benzo[d]imidazol-1-yl)methyl)cyclohexane-1-carbonyl)isoxazolidin-3-yl)benzonitrile]	27	29
N#Cc1cc(F)cc([C@@H]2CCON2C(=O)[C@H]2CC[C@H](Cn3ncc4cc(C#N)ccc43)CC2)c1 [compound 53, trans-1-((4-((S)-3-(3-cyano-5-fluorophenyl)isoxazolidine-2-carbonyl)cyclohexyl)methyl)-1H-indazole-5-carbonitrile]	17	4
N#Cc1cc(F)cc([C@@H]2CCON2C(=O)[C@H]2CC[C@H](Cn3ncc4cc(F)ccc43)CC2)c1 [compound 54, trans-3-fluoro-5-((S)-2-(4-((5-fluoro-1H-indazol-1-yl)methyl)cyclohexane-1-carbonyl)isoxazolidin-3-yl)benzonitrile]	21	6
N#Cc1cc(F)cc([C@@H]2CCON2C(=O)[C@H]2CC[C@H](Cn3cc4cc(F)ccc4n3)CC2)c1 [compound 56, trans-3-fluoro-5-((S)-2-(4-((5-fluoro-2H-indazol-2-yl)methyl)cyclohexane-1-carbonyl)isoxazolidin-3-yl)benzonitrile]	42	109
N#Cc1cc(F)cc([C@@H]2CCON2C(=O)[C@H]2CC[C@H](Cn3cc4cc(C#N)ccc4n3)CC2)c1 [compound 59, trans-2-((4-((S)-3-(3-cyano-5-fluorophenyl)isoxazolidine-2-carbonyl)cyclohexyl)methyl)-2H-indazole-5-carbonitrile]	30	166
N#Cc1cncc([C@@H]2CCON2C(=O)[C@H]2CC[C@H](Cn3cnc4cc(F)c(C#N)cc43)CC2)c1 [compound 64, trans-1-((4-((S)-3-(5-cyanopyridin-3-yl)isoxazolidine-2-carbonyl)cyclohexyl)methyl)-5-fluoro-1H-benzo[d]imidazole-6-carbonitrile]	20	47
N#Cc1cncc([C@@H]2CCON2C(=O)[C@H]2CC[C@H](Cn3cnc4cc(C#N)c(F)cc43)CC2)c1 [compound 65, trans-1-((4-((S)-3-(5-cyanopyridin-3-yl)isoxazolidine-2-carbonyl)cyclohexyl)methyl)-6-fluoro-1H-benzo[d]imidazole-5-carbonitrile]	51	164
N#Cc1cc(F)cc([C@@H]2CCON2C(=O)[C@H]2CC[C@H](Cn3ncc4cc(C#N)c(F)cc43)CC2)c1 [compound 66, trans-1-((4-((S)-3-(3-cyano-5-fluorophenyl)isoxazolidine-2-carbonyl)cyclohexyl)methyl)-6-fluoro-1H-indazole-5-carbonitrile]	18	2
N#Cc1cc2cnn(C[C@H]3CC[C@H](C(=O)N4OCC[C@H]4c4cc(F)cc(F)c4)CC3)c2cc1F [compound 67, trans-1-((4-((S)-3-(3,5-difluorophenyl)isoxazolidine-2-carbonyl)cyclohexyl)methyl)-6-fluoro-1H-indazole-5-carbonitrile]	15	2
Cc1nn(C[C@H]2CC[C@H](C(=O)N3OCC[C@H]3c3cc(F)cc(F)c3)CC2)c2cc(F)c(C#N)cc12 [compound 68, trans-1-((4-((S)-3-(3,5-difluorophenyl)isoxazolidine-2-carbonyl)cyclohexyl)methyl)-6-fluoro-3-methyl-1H-indazole-5-carbonitrile]	25	2
Cc1nn(C[C@H]2CC[C@H](C(=O)N3OCC[C@H]3c3cc(F)cc(C#N)c3)CC2)c2cc(F)c(C#N)cc12 [compound 69, trans-1-((4-((S)-3-(3-cyano-5-fluorophenyl)isoxazolidine-2-carbonyl)cyclohexyl)methyl)-6-fluoro-3-methyl-1H-indazole-5-carbonitrile]	22	5
N#Cc1cc(F)cc([C@@H]2CCON2C(=O)[C@H]2CC[C@H](Cn3cnc4cc(F)c(C(N)=O)cc43)CC2)c1 [compound 70, trans-1-((4-((S)-3-(3-cyano-5-fluorophenyl)isoxazolidine-2-carbonyl)cyclohexyl)methyl)-5-fluoro-1H-benzo[d]imidazole-6-carboxamide]	44	403
NC(=O)c1cc2c(cc1F)ncn2C[C@H]1CC[C@H](C(=O)N2OCC[C@H]2c2cc(F)cc(F)c2)CC1 [compound 71, trans-1-((4-((S)-3-(3,5-difluorophenyl)isoxazolidine-2-carbonyl)cyclohexyl)methyl)-5-fluoro-1H-benzo[d]imidazole-6-carboxamide]	37	93
N#Cc1cc(F)cc([C@@H]2CCON2C(=O)[C@H]2CC[C@H](Cn3ncc4cc(C(N)=O)ccc43)CC2)c1 [compound 72, trans-1-((4-((S)-3-(3-cyano-5-fluorophenyl)isoxazolidine-2-carbonyl)cyclohexyl)methyl)-1H-indazole-5-carboxamide]	30	10
